According to paper PMC6767204, “Synthesis and Biological Evaluation of Disubstituted Pyrimidines as Selective 5-HT2C Agonists” (Molecules, 2019):
Where two headings read alike, the source gives them in different places.

How the values were obtained:
5-HT3 receptor = molecular target: T1, 5-HT3 receptor (Homo sapiens, UniProt P46098); experiment: 5-HT receptor radioligand binding affinity assay, 3; conditions: for SI, selectivity index, 3: subtype Ki divided by 5-HT2C Ki
T1 construct: expressed in transfected cells; host or cells: HEK293 or CHO
T1 sequence (P46098 24-478): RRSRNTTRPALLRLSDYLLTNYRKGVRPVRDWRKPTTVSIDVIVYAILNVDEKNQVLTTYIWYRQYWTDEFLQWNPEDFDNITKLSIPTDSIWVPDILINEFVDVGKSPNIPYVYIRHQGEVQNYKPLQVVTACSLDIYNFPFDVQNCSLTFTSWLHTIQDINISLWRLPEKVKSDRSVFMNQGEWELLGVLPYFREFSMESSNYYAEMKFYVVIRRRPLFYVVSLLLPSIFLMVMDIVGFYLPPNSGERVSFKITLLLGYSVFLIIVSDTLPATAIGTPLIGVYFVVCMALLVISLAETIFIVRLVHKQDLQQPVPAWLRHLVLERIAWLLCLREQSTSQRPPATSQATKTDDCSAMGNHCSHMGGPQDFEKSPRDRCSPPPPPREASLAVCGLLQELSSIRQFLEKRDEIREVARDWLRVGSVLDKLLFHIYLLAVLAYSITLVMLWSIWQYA
Procedure: (§1) Eleven dilutions (5 x assay concentration) of the test and reference compounds (Table S1) were prepared in standard binding buffer (50 mM tris(hydroxymethyl)-aminomethane–HCl (Tris-HCl), 10 mM MgCl2, 1 mM ethylenediaminetetraacetate (EDTA), pH 7.4) by serial dilution: 0.05 nM, 0.5 nM, 1.5 nM, 5 nM, 15 nM, 50 nM, 150 nM, 500 nM, 1.5 μM, 5 μM, and 50 μM. The radioligand (Table S1) was diluted to five times the assay concentration in standard binding buffer. Aliquots (50 μL) of the radioligand were dispensed into the wells of a 96-well plate containing 100 μL of standard binding buffer. Triplicate aliquots (50 μL) of the test and reference compound dilutions were then added. Finally, crude membrane fractions (50 μL) of cells (HEK293 or CHO) expressing human recombinant receptors were dispensed into each well. A total 250 μL of the reaction mixtures was incubated at room temperature and shielded from light for 1.5 h, then harvested by rapid filtration onto Whatman GF/B glass fiber filters presoaked with 0.3% polyethyleneimine, by using a 96-well Brandel harvester.
(§2) Four rapid washes were performed with chilled standard binding buffer (500 μL) to decrease nonspecific binding. Filters were placed in 6 mL scintillation tubes and allowed to dry overnight. The next day, 4 ml of EcoScint scintillation cocktail (National Diagnostics) was added to each tube. The tubes were capped, labeled, and counted by liquid scintillation counting. The filter mats were dried, and the scintillant was melted onto the filters, then the radioactivity retained on the filters was counted in a Microbeta scintillation counter. The IC50 values were obtained by using the Prism 4.0 program (GraphPad Software, San Diego, CA) and converted into Ki values. Each compound was tested in triplicate at least.
(§3) 3. Radioligands and reference compounds for binding assay
(§4) Table S1. A list of 5-HT receptor radioligands and reference compounds for binding assay.
(§5) Receptor subtype Radioligand Reference compound
(§6) 1A [3H]8-OH-DPAT Methysergide
(§7) 2A [3H]Ketanserin Chlorpromazine
(§8) 2C [3H]Mesulergine Chlorpromazine

5-HT2B receptor = molecular target: T2, 5-HT2B receptor (Homo sapiens, UniProt P41595); experiment: 5-HT receptor radioligand binding affinity assay, 2B; conditions: for SI, selectivity index, 2B: subtype Ki divided by 5-HT2C Ki
T2 construct: expressed in transfected cells; host or cells: HEK293 or CHO
T2 sequence (P41595 whole entry): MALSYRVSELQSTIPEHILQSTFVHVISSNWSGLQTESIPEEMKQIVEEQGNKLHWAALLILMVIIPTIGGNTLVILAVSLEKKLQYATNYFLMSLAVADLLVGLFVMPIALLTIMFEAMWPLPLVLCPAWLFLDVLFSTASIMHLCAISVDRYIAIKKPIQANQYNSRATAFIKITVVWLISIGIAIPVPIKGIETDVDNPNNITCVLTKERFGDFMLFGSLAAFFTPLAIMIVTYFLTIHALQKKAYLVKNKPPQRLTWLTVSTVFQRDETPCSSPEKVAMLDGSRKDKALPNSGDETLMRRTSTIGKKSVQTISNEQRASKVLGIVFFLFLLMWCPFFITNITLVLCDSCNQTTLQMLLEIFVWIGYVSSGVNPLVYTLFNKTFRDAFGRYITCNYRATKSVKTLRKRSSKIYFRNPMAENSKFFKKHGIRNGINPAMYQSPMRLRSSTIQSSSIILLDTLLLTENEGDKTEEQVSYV
Procedure: as §1, §2, §3, §4, §5, §6, §7, §8

5-HT2C receptor [1] = molecular target: T3, 5-HT2C receptor (Homo sapiens, UniProt P28335); experiment: 5-HT2C receptor cell-based functional assay (agonist mode, fluorescence-based); conditions: Table 2; serotonin as reference compound
T3 sequence (P28335 33-458): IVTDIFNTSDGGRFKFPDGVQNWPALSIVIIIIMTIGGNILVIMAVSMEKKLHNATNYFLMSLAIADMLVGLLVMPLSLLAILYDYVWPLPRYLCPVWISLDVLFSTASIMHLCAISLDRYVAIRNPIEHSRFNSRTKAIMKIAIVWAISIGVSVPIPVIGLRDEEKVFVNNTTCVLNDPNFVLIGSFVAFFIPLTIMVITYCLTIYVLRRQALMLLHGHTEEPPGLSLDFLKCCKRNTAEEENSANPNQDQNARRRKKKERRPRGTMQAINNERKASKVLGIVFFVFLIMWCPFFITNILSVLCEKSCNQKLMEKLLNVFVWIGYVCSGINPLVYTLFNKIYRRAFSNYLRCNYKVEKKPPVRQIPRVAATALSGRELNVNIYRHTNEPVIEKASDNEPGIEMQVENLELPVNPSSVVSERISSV
Procedure: The synthesized compounds were tested in agonist mode with the 5-HT2C receptor assay using recombinant human HEK-293 cells serviced by either Eurofins Cerep or DGMIF (Daegu-Gyeongbuk Medical Innovation Foundation). All the experiments were duplicated.

5-HT7 receptor = molecular target: T4, 5-HT7 receptor (Homo sapiens, UniProt P34969); experiment: 5-HT receptor radioligand binding affinity assay, 7; conditions: for SI, selectivity index, 7: subtype Ki divided by 5-HT2C Ki
T4 construct: expressed in transfected cells; host or cells: HEK293 or CHO
T4 sequence (P34969 whole entry): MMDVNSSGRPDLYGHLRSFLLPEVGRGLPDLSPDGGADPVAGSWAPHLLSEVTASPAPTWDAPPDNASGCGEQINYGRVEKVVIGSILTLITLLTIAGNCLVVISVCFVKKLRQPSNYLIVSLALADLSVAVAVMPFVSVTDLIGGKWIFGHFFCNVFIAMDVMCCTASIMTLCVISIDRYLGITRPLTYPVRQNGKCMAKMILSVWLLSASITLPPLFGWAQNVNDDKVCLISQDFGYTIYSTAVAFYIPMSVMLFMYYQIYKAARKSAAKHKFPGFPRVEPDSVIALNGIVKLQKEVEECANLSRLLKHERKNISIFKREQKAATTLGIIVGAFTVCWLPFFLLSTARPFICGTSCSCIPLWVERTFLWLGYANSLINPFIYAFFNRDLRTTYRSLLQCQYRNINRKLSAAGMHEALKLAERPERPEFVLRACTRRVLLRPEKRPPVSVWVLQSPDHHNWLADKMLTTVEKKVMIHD
Procedure: as §1, §2, §3, §4, §5, §6, §7, §8

5-HT2A receptor [2] = molecular target: T5, 5-HT2A receptor (Homo sapiens, UniProt P28223); experiment: 5-HT receptor radioligand binding affinity assay, 2A; conditions: for SI, selectivity index, 2A: subtype Ki divided by 5-HT2C Ki
T5 construct: expressed in transfected cells; host or cells: HEK293 or CHO
T5 sequence (P28223 whole entry): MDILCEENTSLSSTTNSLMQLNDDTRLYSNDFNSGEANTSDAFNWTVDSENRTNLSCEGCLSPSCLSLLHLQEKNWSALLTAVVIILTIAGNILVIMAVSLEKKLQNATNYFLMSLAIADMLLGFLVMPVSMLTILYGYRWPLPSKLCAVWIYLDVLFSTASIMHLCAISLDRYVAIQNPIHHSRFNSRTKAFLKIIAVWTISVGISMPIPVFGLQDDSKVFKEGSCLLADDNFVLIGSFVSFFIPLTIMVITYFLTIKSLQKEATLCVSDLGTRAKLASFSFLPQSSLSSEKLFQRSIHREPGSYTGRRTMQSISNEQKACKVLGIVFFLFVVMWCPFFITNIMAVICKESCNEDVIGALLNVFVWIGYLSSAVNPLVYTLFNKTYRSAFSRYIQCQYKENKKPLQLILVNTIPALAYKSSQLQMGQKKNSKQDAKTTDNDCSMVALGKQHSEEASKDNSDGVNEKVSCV
Procedure: as §1, §2, §3, §4, §5, §6, §7, §8

5-HT5A receptor = molecular target: T6, 5-HT5A receptor (Homo sapiens, UniProt P47898); experiment: 5-HT receptor radioligand binding affinity assay, 5A
T6 construct: expressed in transfected cells; host or cells: HEK293 or CHO
T6 sequence (P47898 whole entry): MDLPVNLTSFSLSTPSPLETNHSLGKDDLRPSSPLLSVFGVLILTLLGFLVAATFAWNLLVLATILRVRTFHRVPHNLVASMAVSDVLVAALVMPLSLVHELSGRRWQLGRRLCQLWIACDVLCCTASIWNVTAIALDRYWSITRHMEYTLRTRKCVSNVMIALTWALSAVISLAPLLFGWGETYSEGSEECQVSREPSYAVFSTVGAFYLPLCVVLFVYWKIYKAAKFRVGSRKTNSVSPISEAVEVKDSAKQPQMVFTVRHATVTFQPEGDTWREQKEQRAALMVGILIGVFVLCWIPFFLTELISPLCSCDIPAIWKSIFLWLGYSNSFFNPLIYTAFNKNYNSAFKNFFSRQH
Procedure: as §1, §2, §3
(§9) Table S1. A list of 5-HT receptor radioligands and reference compounds for binding assay. […]

5-HT2C receptor [3] = molecular target: T3, 5-HT2C receptor; experiment: 5-HT receptor radioligand binding affinity assay, 2C; design: expressed in transfected cells; conditions: for %binding / Ki: Table 2; for SI, selectivity index, 2C: subtype Ki divided by 5-HT2C Ki
Procedure: as §1, §2, §3, §4, §5, §6, §7, §8

5-HT1A receptor = molecular target: T7, 5-HT1A receptor (Homo sapiens, UniProt P08908); experiment: 5-HT receptor radioligand binding affinity assay, 1A; conditions: for SI, selectivity index, 1A: subtype Ki divided by 5-HT2C Ki
T7 construct: expressed in transfected cells; host or cells: HEK293 or CHO
T7 sequence (P08908 1-422): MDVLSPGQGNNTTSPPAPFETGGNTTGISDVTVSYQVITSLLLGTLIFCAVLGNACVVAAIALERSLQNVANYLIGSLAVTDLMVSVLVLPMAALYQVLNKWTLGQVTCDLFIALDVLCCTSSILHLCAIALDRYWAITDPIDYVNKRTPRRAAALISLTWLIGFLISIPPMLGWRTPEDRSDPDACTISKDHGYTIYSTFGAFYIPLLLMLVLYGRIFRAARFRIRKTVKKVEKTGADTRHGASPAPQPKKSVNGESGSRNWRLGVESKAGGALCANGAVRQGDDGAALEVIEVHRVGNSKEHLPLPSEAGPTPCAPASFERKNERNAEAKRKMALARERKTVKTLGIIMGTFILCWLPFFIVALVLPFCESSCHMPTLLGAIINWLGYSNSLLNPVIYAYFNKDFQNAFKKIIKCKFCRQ
Procedure: as §1, §2, §3, §4, §5, §6, §7, §8

5-HT6 receptor = molecular target: T8, 5-HT6 receptor (Homo sapiens, UniProt P50406); experiment: 5-HT receptor radioligand binding affinity assay, 6; conditions: for SI, selectivity index, 6: subtype Ki divided by 5-HT2C Ki
T8 construct: expressed in transfected cells; host or cells: HEK293 or CHO
T8 sequence (P50406 whole entry): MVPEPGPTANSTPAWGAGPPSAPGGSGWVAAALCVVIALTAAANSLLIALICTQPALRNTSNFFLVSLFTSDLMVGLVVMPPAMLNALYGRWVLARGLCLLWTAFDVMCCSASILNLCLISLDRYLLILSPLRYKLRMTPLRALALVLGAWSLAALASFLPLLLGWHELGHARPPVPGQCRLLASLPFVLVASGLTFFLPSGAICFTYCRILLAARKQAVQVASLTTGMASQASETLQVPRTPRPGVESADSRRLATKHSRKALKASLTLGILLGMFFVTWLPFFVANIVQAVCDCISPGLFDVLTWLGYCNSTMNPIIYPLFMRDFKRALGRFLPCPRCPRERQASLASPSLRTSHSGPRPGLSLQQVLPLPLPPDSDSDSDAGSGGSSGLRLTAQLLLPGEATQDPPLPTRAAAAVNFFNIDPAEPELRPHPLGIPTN
Procedure: as §1, §2, §3, §4, §5, §6, §7, §8

5-HT1B receptor = molecular target: T9, 5-HT1B receptor (Homo sapiens, UniProt P28222); experiment: 5-HT receptor radioligand binding affinity assay, 1B; conditions: 10 μM
T9 construct: expressed in transfected cells; host or cells: HEK293 or CHO
T9 sequence (P28222 whole entry): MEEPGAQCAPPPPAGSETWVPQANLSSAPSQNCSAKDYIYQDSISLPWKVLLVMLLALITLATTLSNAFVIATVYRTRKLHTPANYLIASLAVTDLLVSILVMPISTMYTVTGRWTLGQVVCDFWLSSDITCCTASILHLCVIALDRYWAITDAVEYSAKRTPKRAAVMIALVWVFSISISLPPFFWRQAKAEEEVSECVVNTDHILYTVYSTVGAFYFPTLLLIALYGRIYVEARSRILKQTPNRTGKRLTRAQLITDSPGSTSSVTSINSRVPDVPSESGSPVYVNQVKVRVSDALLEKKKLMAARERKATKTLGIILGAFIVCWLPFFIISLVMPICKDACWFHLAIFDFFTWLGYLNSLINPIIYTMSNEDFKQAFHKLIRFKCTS

5-HT1D receptor = molecular target: T10, 5-HT1D receptor (Homo sapiens, UniProt P28221); experiment: 5-HT receptor radioligand binding affinity assay, 1D; conditions: for SI, selectivity index, 1D: subtype Ki divided by 5-HT2C Ki
T10 construct: expressed in transfected cells; host or cells: HEK293 or CHO
T10 sequence (P28221 whole entry): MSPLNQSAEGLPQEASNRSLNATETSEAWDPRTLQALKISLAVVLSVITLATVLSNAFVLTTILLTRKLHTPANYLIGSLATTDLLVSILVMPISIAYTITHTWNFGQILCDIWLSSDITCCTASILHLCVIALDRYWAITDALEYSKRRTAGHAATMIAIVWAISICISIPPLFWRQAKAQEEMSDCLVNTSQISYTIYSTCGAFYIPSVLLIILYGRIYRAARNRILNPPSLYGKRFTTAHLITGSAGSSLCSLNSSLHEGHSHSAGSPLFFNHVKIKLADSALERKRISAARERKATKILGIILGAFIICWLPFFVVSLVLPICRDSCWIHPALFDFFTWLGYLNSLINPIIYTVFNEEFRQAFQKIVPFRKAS
Procedure: as §1, §2, §3, §4, §5, §6, §7, §8

5-HT1E receptor = molecular target: T11, 5-HT1E receptor (Homo sapiens, UniProt P28566); experiment: 5-HT receptor radioligand binding affinity assay, 1E
T11 construct: expressed in transfected cells; host or cells: HEK293 or CHO
T11 sequence (P28566 whole entry): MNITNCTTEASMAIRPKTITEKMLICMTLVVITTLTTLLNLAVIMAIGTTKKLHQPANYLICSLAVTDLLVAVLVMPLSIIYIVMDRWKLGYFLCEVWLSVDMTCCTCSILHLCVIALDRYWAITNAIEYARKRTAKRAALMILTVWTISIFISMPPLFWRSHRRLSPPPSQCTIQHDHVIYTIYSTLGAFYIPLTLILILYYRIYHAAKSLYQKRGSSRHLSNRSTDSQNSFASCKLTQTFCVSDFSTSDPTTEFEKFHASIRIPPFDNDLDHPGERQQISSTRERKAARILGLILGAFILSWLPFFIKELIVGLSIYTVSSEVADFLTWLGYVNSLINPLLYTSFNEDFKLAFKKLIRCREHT
Procedure: as §1, §2, §3, §9

5-HT2A receptor [4] = molecular target: T5, 5-HT2A receptor; design: method as in PMID 28846591; conditions: Figure 2; cited from earlier work

Compound | Ki (5-HT3 receptor) | %Binding at 10 μM, 3 (5-HT3 receptor) | SI, selectivity index, 3 (5-HT3 receptor) | Ki (5-HT2B receptor) | %Binding at 10 μM, 2B (5-HT2B receptor) | SI, selectivity index, 2B (5-HT2B receptor) | Ki (5-HT7 receptor) | %Binding at 10 μM, 7 (5-HT7 receptor) | SI, selectivity index, 7 (5-HT7 receptor) | Ki (5-HT2A receptor [2]) | %Binding at 10 μM, 2A (5-HT2A receptor [2]) | SI, selectivity index, 2A (5-HT2A receptor [2]) | %Binding at 10 μM, 5A (5-HT5A receptor) | %binding (5-HT2C receptor [3]) | Ki (5-HT2C receptor [3]) | SI, selectivity index, 2C (5-HT2C receptor [3]) | Ki (5-HT1A receptor) | %Binding at 10 μM, 1A (5-HT1A receptor) | SI, selectivity index, 1A (5-HT1A receptor) | Ki (5-HT6 receptor) | other results
C[C@@H](Oc1nc(N2CCCNCC2)ncc1F)c1ccc(F)cc1 [10f, (R)-1-(5-fluoro-4-(1-(4-fluorophenyl)ethoxy)pyrimidin-2-yl)-1,4-diazepane] | 415 nM | 88.0% | 21.8 | 118 nM | 95.0% | 6.2 | 616 nM | 55.4% | 32.4 | 2860 nM | 52.9% | 150.7 | 15.2 /ND % | 93.9% | 0.019 µM | 1.0 | 1070 nM | 67.6% | 56.1 | 467 nM | %activation (5-HT2C receptor [1]): 52.4%; %Binding at 10 μM, 6 (5-HT6 receptor): 56.5%; SI, selectivity index, 6 (5-HT6 receptor): 24.6; %Binding at 10 μM, 1B (5-HT1B receptor): 19.2 /ND^b %; Ki (5-HT1D receptor): 937 nM; %Binding at 10 μM, 1D (5-HT1D receptor): 81.3%; SI, selectivity index, 1D (5-HT1D receptor): 49.3; %Binding at 10 μM, 1E (5-HT1E receptor): 31.3 /ND^b %
C[C@@H]1CNCCN1c1ncc(F)c(O[C@H](C)c2ccc(F)cc2)n1 [compound 8, reference compound] | 543 nM | 83.4% | 92.0 | 38 nM | 98.1% | 6.4 | 528 nM | 63.4% | 89.5 | 511 nM | 85.3% | 86.6 | 18.5 /ND^b % | 89.0% | 0.0059 µM | 1.0 | 271 nM | 89.1% | 45.9 | 30 nM | Ki (5-HT2A receptor [4]): 1.28 µM; %Binding at 10 μM, 2C (5-HT2C receptor [3]; 10 μM, Table 3): 89.0%; %Binding at 10 μM, 6 (5-HT6 receptor): 56.7%; SI, selectivity index, 6 (5-HT6 receptor): 5.1; %Binding at 10 μM, 1B (5-HT1B receptor): 4.9 /ND^b %; Ki (5-HT1D receptor): 1050 nM; %Binding at 10 μM, 1D (5-HT1D receptor): 83.4%; SI, selectivity index, 1D (5-HT1D receptor): 178.3; %Binding at 10 μM, 1E (5-HT1E receptor): 48.0 /ND^b %
